The target of data set [1] is AChE (Homo sapiens, UniProt P22303). As to the kind of experiment: Kinetic analysis of AChE inhibition, steady-state inhibition constants. The format is biochemical. The note with it: for AChE inhibition constant αKi (noncompetitive component) / Ki: Lineweaver–Burk analysis; for Ki: read-out: AChE inhibition constant Ki (competitive component); for Mechanism of AChE inhibition: Lineweaver–Burk double reciprocal plot. As for the experimental part:
. The results were analyzed using the Lineweaver–Burk double reciprocal plot, and the graphical analysis of the kinetic data is shown in Figure 1. […]. To elucidate the inhibition mechanisms for the active compounds, the residual activity of AChE was determined in the presence of three increasing concentrations of the test compounds and six decreasing concentrations of the substrates. The test compounds were preincubated with the enzyme at 25 °C for 5 min, followed by the addition of the substrates. Parallel controls were made for an assay of the rate of hydrolysis of the same concentrations of substrates in the solutions with no inhibitor. The kinetic parameters of substrate hydrolysis were determined. Measurements were performed with a FLUOStar Optima microplate reader. Each experiment was performed in triplicate.

In data set [2] the target is T1, NMDA receptor peripheral site ([3H]ifenprodil) (Rattus norvegicus, UniProt P35439+Q00960).
T1 construct: from tissue; host or cells: rat brain membranes
As to the kind of experiment: Radioligand binding, [3H]ifenprodil site of the NMDA receptor. As for the experimental part: (§1) The experiments were carried out using a rat brain membrane fraction.
(§2) The effect of test compounds on the radioligand binding to NMDA receptors was determined as previously described. Two radioactive ligands were used: [^3H] […] A pellet of rat brain membrane specimen was resuspended in a working buffer (5 mM HEPES/4.5 mM Tris buffer, pH 7.6) in a ratio of 1:5 and stored in liquid nitrogen. The reaction mixture (with a final volume of 0.5 mL) contained 200 µL of the working buffer, 50 µL of 50 nM radioligand solution, and 250 µL of the membrane suspension. Nonspecific binding was determined in the presence of 50 µL of […] of unlabeled ligand.
(§3) For the binding study, the reaction mixture was incubated at room temperature for 2 h. After incubation, the samples were filtered through GF/B glass-fiber filters (Whatman), washed with the working buffer, dried, and transferred to scintillation vials, and then 5 mL of scintillation fluid was added to the vials containing 4 g of diphenyloxazole (PPO), 0.2 g of diphenyloxazoil benzene (POPOP), and 1 L of toluene.
(§4) The effect of the test compounds on the binding of [^3H]

Data set [3] deals with T2, NMDA receptor intrachannel site ([3H]MK-801) (Rattus norvegicus, UniProt P35439).
T2 construct: from tissue; host or cells: rat brain membranes
Kind of data set: Radioligand binding, [3H]MK-801 site of the NMDA receptor. As to the method:
as §1, §2, §3, §4

Data set [4] concerns rat cerebellar granule cells (CGC) and brain cortical neurons (BCN). Kind of data set: Viability of CGC and BCN with the compound alone, MTT assay. Particulars: various concentrations. The format is cell-based. As for the experimental part:
(§5) This neurotoxicity model reflects the calcium stress involved with several types of insults, such as amyloid toxicity, excitotoxicity, and ischemic damage. The viability of the primary culture of rat cerebellar granule cells (CGC) and brain cortical neurons (BCN) was assessed by the MTT assay in the presence of various concentrations of compound 4i.
(§6) Cerebellar granule cells (CGC) and brain cortical neurons (BCN) were isolated from P-7 or P0-2 rat’s pups, respectively, using a previously described protocol. Once removed, cerebella or brain cortex were digested for 15 min in 0.025% type II trypsin (w/v) at 37 °C. Ice-cold DMEM containing 5% (w/v) fetal bovine serum was added to inactivate the trypsin. […] After 8-10 day in culture the cells were incubated with a test compound or an equal volume of the DMSO (<1% (v/v) of the whole volume of the medium under the layer of cells and 3 µM ionomycin for 24 h. The cell viability was then evaluated as the dehydrogenase activity with the 3-(4,5-dimethylthiazol-2-yl)-2,5-diphenyltetrazolium bromide (MTT) assay. The absorbance was measured at 570 nm using a Victor microplate reader (Perkin Elmer), and data were normalized with intact control assumed 100%.
For orientation: Formazan colour is commonly taken as a measure of viable cells.

For data set [5], the system named is primary culture of rat cerebellar granule cells (CGC). Kind of data set: Ionomycin-induced toxicity in cerebellar granule cells, MTT assay. Particulars: ionomycin 3 µM. The format is cell-based. As for the experimental part: as §5, §6
Data set [6] deals with rat brain cortical neurons (BCN). As to the kind of experiment: Ionomycin-induced toxicity in brain cortical neurons, MTT assay. Particulars: ionomycin 1 µM. The format is cell-based. As for the experimental part:
as §5
Cerebellar granule cells (CGC) and brain cortical neurons (BCN) were isolated from P-7 or P0-2 rat’s pups, respectively, using a previously described protocol. Once removed, cerebella or brain cortex were digested for 15 min in 0.025% type II trypsin (w/v) at 37 °C. Ice-cold DMEM containing 5% (w/v) fetal bovine serum was added to inactivate the trypsin. The crude cell suspension was centrifuged, and the cell pellet was resuspended in Neurobasal with 2% (v/v) B27 supplemented with 15% (v/v) fetal bovine serum (FBS), 100 U/mL penicillin, and […] streptomycin. The cells were cultured in a humidified, 5% (v/v) CO2-controlled environment at 37 °C. […] The cell viability was then evaluated as the dehydrogenase activity with the 3-(4,5-dimethylthiazol-2-yl)-2,5-diphenyltetrazolium bromide (MTT) assay. The absorbance was measured at 570 nm using a Victor microplate reader (Perkin Elmer), and data were normalized with intact control assumed 100%.

The test system of data set [7] is isolated rat liver mitochondria. Kind of data set: Oxygen consumption rate of mitochondria (Seahorse flux analyzer). The format is biochemical. Particulars: nanomolar concentrations; complex I substrates (glutamate and malate) and in the presence of rotenone. As for the experimental part: Meanwhile, compound 4i can stimulate respiration of isolated rat liver mitochondria, which was estimated using an XFe96 Seahorse extracellular flux analyzer (Figure 5).
Analysis was based on the fluorometric determination of O2 and H^+ levels with solid-state probes on a sensor cartridge. The oxygen consumption rate (OCR) was measured successively in the presence of RC substrates and then after the addition of ADP (phosphorylating respiration), ATP synthase F^o-subunit inhibitor oligomycin (proton leak), oxidative phosphorylation uncoupler FCCP (maximal respiration), and the corresponding inhibitors of respiration chain complexes (non-mitochondrial respiration) (Figure 5a).
The oxygen consumption was measured using a Seahorse XF96 flux analyzer on mitochondria respiring on glutamate (5 mM) and malate (5 mM), according the same protocol as with a correction to a 96-well instead of a 24-well plate. Respiration by rat liver mitochondria (5 µg/well) was sequentially measured in a coupled state with substrates of complex I (basal respiration); followed by phosphorylating respiration after the addition of ADP; non-phosphorylating or resting respiration induced with the addition of oligomycin; uncoupled respiration stimulated by the addition of FCCP; and finally, non-mitochondrial respiration after the addition of the inhibitor of complex I rotenone.

Data set [8] has the same test system. As to the kind of experiment: Mitochondrial membrane potential and calcium-induced depolarization (safranine O). The format is biochemical. The note with it: complex I inhibitor rotenone and a substrate of RC complex II.
The conditions of data set [9]: cited from earlier work.

As usually defined, the Ki is the dissociation constant of the complex between target and ligand, obtained from inhibition or displacement. The term IC50 denotes the midpoint of a concentration-inhibition curve. Read a high IC50 as weaker potency in that assay.

Chain of AChE (P22303 32-588 isoform P22303-2): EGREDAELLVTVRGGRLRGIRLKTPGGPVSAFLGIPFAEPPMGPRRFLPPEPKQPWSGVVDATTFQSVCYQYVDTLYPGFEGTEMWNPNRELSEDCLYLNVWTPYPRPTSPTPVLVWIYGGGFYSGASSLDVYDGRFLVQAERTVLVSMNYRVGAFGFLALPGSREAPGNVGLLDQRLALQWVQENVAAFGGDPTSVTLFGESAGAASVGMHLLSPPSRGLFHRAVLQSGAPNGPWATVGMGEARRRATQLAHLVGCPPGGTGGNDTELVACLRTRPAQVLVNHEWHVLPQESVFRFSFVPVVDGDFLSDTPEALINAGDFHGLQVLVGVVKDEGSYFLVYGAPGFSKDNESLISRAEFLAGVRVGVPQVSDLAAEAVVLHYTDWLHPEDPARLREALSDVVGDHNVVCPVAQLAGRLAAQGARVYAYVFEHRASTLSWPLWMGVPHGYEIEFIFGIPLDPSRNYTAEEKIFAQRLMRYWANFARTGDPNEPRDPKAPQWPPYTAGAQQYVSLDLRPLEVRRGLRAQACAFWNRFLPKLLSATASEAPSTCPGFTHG
T1 sequence (Q00960 27-1482, other chains not shown): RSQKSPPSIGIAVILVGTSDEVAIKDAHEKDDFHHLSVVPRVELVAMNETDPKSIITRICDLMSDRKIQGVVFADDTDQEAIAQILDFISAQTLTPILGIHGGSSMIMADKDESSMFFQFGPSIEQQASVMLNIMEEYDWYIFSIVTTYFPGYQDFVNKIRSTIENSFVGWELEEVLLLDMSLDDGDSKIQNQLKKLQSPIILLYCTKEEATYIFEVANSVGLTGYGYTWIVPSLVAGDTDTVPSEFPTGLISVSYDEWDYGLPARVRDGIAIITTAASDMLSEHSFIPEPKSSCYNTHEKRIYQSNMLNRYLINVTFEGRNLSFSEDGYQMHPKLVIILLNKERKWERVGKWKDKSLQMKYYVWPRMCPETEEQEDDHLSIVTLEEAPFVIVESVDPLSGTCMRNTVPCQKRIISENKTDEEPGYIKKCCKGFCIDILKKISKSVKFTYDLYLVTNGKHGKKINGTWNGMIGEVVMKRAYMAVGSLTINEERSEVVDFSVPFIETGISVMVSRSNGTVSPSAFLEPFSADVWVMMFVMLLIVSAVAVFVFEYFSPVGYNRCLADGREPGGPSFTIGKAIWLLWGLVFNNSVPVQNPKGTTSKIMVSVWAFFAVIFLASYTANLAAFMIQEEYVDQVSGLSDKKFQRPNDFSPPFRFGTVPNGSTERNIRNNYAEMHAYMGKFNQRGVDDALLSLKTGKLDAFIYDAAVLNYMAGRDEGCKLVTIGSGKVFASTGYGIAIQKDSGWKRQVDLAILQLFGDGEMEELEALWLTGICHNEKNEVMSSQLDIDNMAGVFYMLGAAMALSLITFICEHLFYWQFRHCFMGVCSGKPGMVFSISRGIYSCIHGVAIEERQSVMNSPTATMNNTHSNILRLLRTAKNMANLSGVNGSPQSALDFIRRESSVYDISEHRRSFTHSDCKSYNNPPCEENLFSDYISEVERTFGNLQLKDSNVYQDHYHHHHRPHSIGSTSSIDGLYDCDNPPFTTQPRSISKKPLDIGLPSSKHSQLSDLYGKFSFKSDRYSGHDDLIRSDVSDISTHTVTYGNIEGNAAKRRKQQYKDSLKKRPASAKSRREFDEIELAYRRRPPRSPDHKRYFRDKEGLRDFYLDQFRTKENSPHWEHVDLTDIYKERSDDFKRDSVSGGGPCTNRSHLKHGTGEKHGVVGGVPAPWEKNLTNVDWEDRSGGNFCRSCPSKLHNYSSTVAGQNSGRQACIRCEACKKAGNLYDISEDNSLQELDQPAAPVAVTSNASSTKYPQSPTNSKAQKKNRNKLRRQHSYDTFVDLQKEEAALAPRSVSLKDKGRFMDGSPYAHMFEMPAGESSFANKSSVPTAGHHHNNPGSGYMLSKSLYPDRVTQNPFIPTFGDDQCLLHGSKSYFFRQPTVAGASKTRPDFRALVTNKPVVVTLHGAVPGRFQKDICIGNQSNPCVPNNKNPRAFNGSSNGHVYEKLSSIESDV

As for `Cc1ccc2c(c1)c1c(n2CCC(=O)N2c3ccc(N(C)C)cc3Sc3cc(N(C)C)ccc32)CCCC1` [Compound 4c], in data set [1], the “AChE inhibition constant αKi (noncompetitive component)” value (from here on “AChE inhibition constant αKi”) was 5.83 ± 0.31 µM, the Ki was found to be 1.98 ± 0.17 µM and the “Mechanism of AChE inhibition” value is “mixed type inhibition”.
On to `CN(C)c1ccc2c(c1)Sc1cc(N(C)C)ccc1N2C(=O)CCn1c2c(c3cc(OC(F)(F)F)ccc31)CCCC2` [Compound 4h], for which the IC50 in data set [2] was determined as 61.3 ± 6.5 µM; in data set [3], 116 ± 10.1 µM.
On to `CC1CCc2c(c3cc(OC(F)(F)F)ccc3n2CCC(=O)N2c3ccc(N(C)C)cc3Sc3cc(N(C)C)ccc32)C1` (centres unmarked) [Compound 4i], for which, in data set [1], the “AChE inhibition constant αKi” value came to 3.19 ± 0.10 µM, the Ki amounted to 1.12 ± 0.05 µM and the “Mechanism of AChE inhibition” value was “mixed type inhibition”. The molecule further showed an IC50 in data set [2] of 10.4 ± 1.2 µM. Also, in data set [4], the “Effect on formazan formation in the MTT assay (toxicity to cells)” value was “did not affect formazan formation”. In data set [3], this molecule registered a concentration for half-maximal inhibition (IC50) of 101 ± 9.2 µM. The “Protection from ionomycin-induced toxicity, CGC” value in data set [5] is given as “statistically significant protection”. In addition, the “Protection from ionomycin-induced toxicity, BCN” value in data set [6] is “statistically significant protection”. For the same molecule, in data set [7], the “Phosphorylating respiration and maximal respiration (OCR)” value is “statistically significant increase”.
With `CN(C)c1ccc2c(c1)Sc1cc(N(C)C)ccc1N2C(=O)CCn1c2c(c3ccccc31)CCCCCC2` [Compound 4m], in data set [1], the “AChE inhibition constant αKi” value stood at 4.03 ± 0.15 µM, the Ki turned out to be 1.06 ± 0.04 µM and the “Mechanism of AChE inhibition” value is “mixed type inhibition”. For the same molecule, in data set [8], the “Effect on mitochondrial membrane potential at 1 μM, rotenone and complex II substrate” value is listed as “induced mitochondrial depolarization”.
For `CN(C)c1ccc2nc3ccc(=[N+](C)C)cc-3sc2c1` [MB, Methylene blue, reference compound], the “Effect on mitochondrial membrane potential at 1 μM, rotenone and complex II substrate” value in data set [8] was “induced mitochondrial depolarization”. In addition, the Redox potential in [9] is 11 mV.

These data come from paper PMC9697446 (International Journal of Molecular Sciences, 2022).
